Here are results for four molecules from patent publication US20110015119A1, “NOVEL SEMI-SYNTHETIC GLYCOPEPTIDES AS ANTIBACTERIAL AGENTS” (LEAD THERAPEUTICS, INC., priority 2009, published 2011).

Holding throughout (format): cell-based
For assay [1], the system named is Staphylococcus aureus 100 (ATCC 29213). Description: MIC by broth microdilution, SA 100. Conditions: Staphylococcus aureus, ATCC29213, read-out: MIC SA 100. In outline:
(§1)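 Susceptibility testing follows the NCCLS broth microdilution protocol in Mueller-Hinton broth, on clinical isolates.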
(In broth dilution the organism is exposed to a series of concentrations in liquid medium.)

Assay [2] relates to Staphylococcus aureus 757 (MRSA). Put plainly: MIC by broth microdilution, SA 757. The settings on record: Staphylococcus aureus, MRSA, read-out: MIC SA 757. The gist of the method: as §1
Assay [3] concerns Staphylococcus aureus 2012 (VISA). Put plainly: MIC by broth microdilution, SA 2012. The settings on record: Staphylococcus aureus, VISA, read-out: MIC SA 2012, Staphylococcus aureus 2012 (VISA); class symbols. In outline:
as §1

In assay [4] the test system is Staphylococcus epidermidis 835. Description: MIC by broth microdilution, SE 835. The settings on record: Staphylococcus epidermidis, 835, read-out: MIC SE 835. The gist of the method:
as §1

Assay [5] has as its system Staphylococcus epidermidis 831 (MRSE). Description: MIC by broth microdilution, SE 831. The settings on record: Staphylococcus epidermidis, MRSE, read-out: MIC SE 831. In outline:
as §1

Assay [6] concerns Enterococcus faecalis 101 (ATCC 29212). Description: MIC by broth microdilution, EFc 101. The settings on record: Enterococcus faecalis, ATCC29212, read-out: MIC E FC 101, Enterococcus faecalis 101 (ATCC 29212); class symbols. The gist of the method: as §1
Assay [7] deals with Enterococcus faecalis 848 (VRE, Van A). Put plainly: MIC by broth microdilution, EFc 848. The settings on record: Enterococcus faecalis, VRE, read-out: MIC E FC 848, Enterococcus faecalis 848 (VRE, Van A); class symbols. In outline: as §1
The next assay deals with Enterococcus faecium 800. Description: MIC by broth microdilution, EFcm 800. The settings on record: Enterococcus faecium, 800, read-out: MIC E FCM 800. In outline:
as §1

The test system of assay [8] is Enterococcus faecium 752 (VRE, Van A). Description: MIC by broth microdilution, EFcm 752. The settings on record: Enterococcus faecium, VRE, read-out: MIC E FCM 752, Enterococcus faecium 752 (VRE, Van A); class symbols. The gist of the method:
as §1

Assay [9] relates to Streptococcus pneumoniae 1195 (ATCC 49619). Description: MIC by broth microdilution, SPNE 1195. Conditions: Streptococcus pneumoniae, ATCC49619, read-out: MIC S PNE 1195. The gist of the method: as §1
Assay [10] concerns Streptococcus pyogenes 712. Description: MIC by broth microdilution, SPY 712. The settings on record: Streptococcus pyogenes, 712, read-out: MIC S PYO 712. In outline: as §1

What is called MIC is the lowest concentration that inhibits growth of the organism.

≈ marks a conversion by molar mass, not a printed value.

As to `CCCOc1ccc(NC(=O)Oc2cc(O)c3c(c2)[C@@H](C(=O)O)NC(=O)[C@H]2NC(=O)[C@H](NC(=O)[C@@H]4NC(=O)[C@H](CC(N)=O)NC(=O)[C@H](NC(=O)[C@@H](CC(C)C)NC)[C@H](O)c5ccc(c(Cl)c5)Oc5cc4cc(c5O[C@@H]4O[C@H](CO)[C@@H](O)[C@H](O)[C@H]4O[C@H]4C[C@](C)(N)[C@H](O)[C@H](C)O4)Oc4ccc(cc4Cl)[C@H]2O)c2ccc(O)c-3c2)cc1` (atropisomer, axis not shown) [Compound 329], the MIC in assay [1] was in the range of 1 to 2 µg/mL (≈ 0.615 to 1.23 µM); in assay [2], 0.5 to 1 µg/mL (≈ 0.307 to 0.615 µM); in [3], 8 to 16 µg/mL (≈ 4.92 to 9.84 µM); in assay [4], 2 to 4 µg/mL (≈ 1.23 to 2.46 µM); in assay [5] it was 2 to 4 µg/mL (≈ 1.23 to 2.46 µM); in assay [6], 0.5 to 1 µg/mL (≈ 0.307 to 0.615 µM). The minimal inhibitory concentration (MIC) was more than 16 µg/mL in [7]; 0.5 to 1 µg/mL (≈ 0.307 to 0.615 µM) with Enterococcus faecium 800; more than 16 µg/mL in [8]; 0.01 to 0.5 µg/mL (≈ 0.00615 to 0.307 µM) in assay [9]; 0.01 to 0.5 µg/mL (≈ 0.00615 to 0.307 µM) in [10].
`CCCCCCc1ccc(S(=O)(=O)NCCCCCNC(=O)Oc2cc(O)c3c(c2)[C@@H](C(=O)O)NC(=O)[C@H]2NC(=O)[C@H](NC(=O)[C@@H]4NC(=O)[C@H](CC(N)=O)NC(=O)[C@H](NC(=O)[C@@H](CC(C)C)NC)[C@H](O)c5ccc(c(Cl)c5)Oc5cc4cc(c5O[C@@H]4O[C@H](CO)[C@@H](O)[C@H](O)[C@H]4O[C@H]4C[C@](C)(N)[C@H](O)[C@H](C)O4)Oc4ccc(cc4Cl)[C@H]2O)c2ccc(O)c-3c2)cc1` (atropisomer, axis not shown) [Compound 350]: the MIC in [1], in assay [2], in assay [3], in assay [4], in [5] and in assay [6] was 0.01 to 0.5 µg/mL (≈ 0.00555 to 0.278 µM) throughout. The MIC in [7] is 4 to 8 µg/mL (≈ 2.22 to 4.44 µM); in the assay with Enterococcus faecium 800, 0.01 to 0.5 µg/mL (≈ 0.00555 to 0.278 µM); in assay [8] it was 1 to 2 µg/mL (≈ 0.555 to 1.11 µM); in [9], 0.01 to 0.5 µg/mL (≈ 0.00555 to 0.278 µM); in assay [10], 0.01 to 0.5 µg/mL (≈ 0.00555 to 0.278 µM).
As for `CCCCCCCC(C)NC(=O)Oc1cc(O)c2c(c1)[C@@H](C(=O)NC1C3CC4CC(C3)CC1C4)NC(=O)[C@H]1NC(=O)[C@H](NC(=O)[C@@H]3NC(=O)[C@H](CC(N)=O)NC(=O)[C@H](NC(=O)[C@@H](CC(C)C)NC)[C@H](O)c4ccc(c(Cl)c4)Oc4cc3cc(c4O[C@@H]3O[C@H](CO)[C@@H](O)[C@H](O)[C@H]3O[C@H]3C[C@](C)(N)[C@H](O)[C@H](C)O3)Oc3ccc(cc3Cl)[C@H]1O)c1ccc(O)c-2c1` (some centres unmarked) [Compound 312], the minimum inhibitory concentration (MIC) in assay [1] is 0.01 to 0.5 µg/mL (≈ 0.00571 to 0.285 µM); in [2] it was 0.01 to 0.5 µg/mL (≈ 0.00571 to 0.285 µM); in [3] it was more than 16 µg/mL; in assay [4] it was 0.5 to 1 µg/mL (≈ 0.285 to 0.571 µM); in assay [5] it was 0.01 to 0.5 µg/mL (≈ 0.00571 to 0.285 µM); in [6], 0.01 to 0.5 µg/mL (≈ 0.00571 to 0.285 µM). In addition, the minimum inhibitory concentration (MIC) in [7] is more than 16 µg/mL; with Enterococcus faecium 800, 0.01 to 0.5 µg/mL (≈ 0.00571 to 0.285 µM); in assay [8], 0.5 to 1 µg/mL (≈ 0.285 to 0.571 µM); in assay [9] it was 0.01 to 0.5 µg/mL (≈ 0.00571 to 0.285 µM); in [10] it was 0.01 to 0.5 µg/mL (≈ 0.00571 to 0.285 µM).
In the case of `CCOc1ccc(NC(=O)Oc2cc(O)c3c(c2)[C@@H](C(=O)NC2C4CC5CC(C4)CC2C5)NC(=O)[C@H]2NC(=O)[C@H](NC(=O)[C@@H]4NC(=O)[C@H](CC(N)=O)NC(=O)[C@H](NC(=O)[C@@H](CC(C)C)NC)[C@H](O)c5ccc(c(Cl)c5)Oc5cc4cc(c5O[C@@H]4O[C@H](CO)[C@@H](O)[C@H](O)[C@H]4O[C@H]4C[C@](C)(N)[C@H](O)[C@H](C)O4)Oc4ccc(cc4Cl)[C@H]2O)c2ccc(O)c-3c2)cc1` (some centres unmarked) [Compound 330], the MIC was in the range of 0.5 to 1 µg/mL (≈ 0.286 to 0.573 µM) in assay [1]; 0.5 to 1 µg/mL (≈ 0.286 to 0.573 µM) in assay [2]; 4 to 8 µg/mL (≈ 2.29 to 4.58 µM) in assay [3]; 1 to 2 µg/mL (≈ 0.573 to 1.15 µM) in assay [4]; 1 to 2 µg/mL (≈ 0.573 to 1.15 µM) in [5]; 1 to 2 µg/mL (≈ 0.573 to 1.15 µM) in assay [6]. Also, the minimum inhibitory concentration (MIC) in assay [7] was more than 16 µg/mL; in the assay on Enterococcus faecium 800 it was 0.01 to 0.5 µg/mL (≈ 0.00573 to 0.286 µM); in [8], more than 16 µg/mL; in [9], 0.01 to 0.5 µg/mL (≈ 0.00573 to 0.286 µM); in [10], 0.01 to 0.5 µg/mL (≈ 0.00573 to 0.286 µM).
